Test results from publication PMC5520994 (Science signaling, 2017).
Entries after “also recorded” stand apart in the source; their conditions may differ. Read-outs that look alike come from different tables or passages of the source.

Assays:
[1] = molecular target: IL-17A/IL-17RA binding (Homo sapiens, UniProt Q96F46); test: Ligand-receptor binding inhibition assay
[2] = system: IL-17A; test: IL-17A–stimulated cytokine and chemokine production in mouse cells; assay type: cell-based; settings: 24 hours, ELISA
[3] = molecular target: T1, IL-17RA D262A mutant (Homo sapiens, UniProt Q96F46, D293A); test: Fluorescence quenching assay of A18 binding to labeled IL-17RA D262A mutant
[4] = system: WT C57BL/6 mice; test: Intradermal injection of IL-17A into ears, epidermal hyperplasia; assay type: in vivo, mouse; settings: IL-17 plus A18 vs PBS-treated mice, RT-PCR
[5] = system: IL-17E; test: IL-17E–stimulated CXCL1 production / target gene expression in HT29 cells; assay type: cell-based, human; settings: 24 hours
[6] = system: IL-17F; test: IL-17F–stimulated expression of target genes in cultured cells; assay type: cell-based
[7] = system: WT C57BL/6J mice; test: Adoptive transfer of MOG-specific TH17 cells to induce EAE; assay type: in vivo, mouse
[8] = molecular target: IL-17RA (Homo sapiens, UniProt Q96F46); test: Surface plasmon resonance; assay type: binding; settings: immobilized IL-17RA on CM5 chip
[9] = system: WT C57BL/6 mice; test: TPA-induced skin hyperplasia; assay type: in vivo, mouse; settings: dorsal skin, RT-PCR (Myc, Cxcl1, Steap4), day 7
[10] = system: WT C57BL/6 mice; test: Adoptive transfer of OVA-specific TH2 cells, eosinophilic airway inflammation; assay type: in vivo, mouse; settings: RT-PCR
[11] = molecular target: T2, IL-17C/IL-17RE binding (Homo sapiens, UniProt Q8NFR9); test: Ligand-receptor binding inhibition assay; settings: serial dilutions, purified proteins
T2 sequence (Q8NFR9 155-454): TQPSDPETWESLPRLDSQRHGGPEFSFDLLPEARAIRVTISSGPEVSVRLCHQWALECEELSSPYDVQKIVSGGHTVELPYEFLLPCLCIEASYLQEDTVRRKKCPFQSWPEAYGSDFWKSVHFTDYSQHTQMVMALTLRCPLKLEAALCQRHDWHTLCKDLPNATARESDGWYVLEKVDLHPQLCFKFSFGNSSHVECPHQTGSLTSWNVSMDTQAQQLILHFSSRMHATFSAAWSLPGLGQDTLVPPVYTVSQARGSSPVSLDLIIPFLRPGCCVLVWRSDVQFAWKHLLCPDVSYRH

[12] = system: WT C57BL/6 mice; test: Adoptive transfer of OVA-specific TH17 cells, neutrophilic airway inflammation; assay type: in vivo, mouse; settings: TH17 cell transfer, RT-PCR
[13] = system: IL-17A; test: IL-17A–mediated signaling events in HeLa cells; assay type: cell-based, human
[14] = system: IL-17A; test: IL-17A–stimulated cytokine and chemokine production in human cells; assay type: cell-based; settings: 24 hours, ELISA
[15] = molecular target: T3, IL-17E/IL-17RB binding (Homo sapiens, UniProt Q9NRM6); test: Ligand-receptor binding inhibition assay; settings: serial dilutions, purified proteins
T3 sequence (Q9NRM6 18-289): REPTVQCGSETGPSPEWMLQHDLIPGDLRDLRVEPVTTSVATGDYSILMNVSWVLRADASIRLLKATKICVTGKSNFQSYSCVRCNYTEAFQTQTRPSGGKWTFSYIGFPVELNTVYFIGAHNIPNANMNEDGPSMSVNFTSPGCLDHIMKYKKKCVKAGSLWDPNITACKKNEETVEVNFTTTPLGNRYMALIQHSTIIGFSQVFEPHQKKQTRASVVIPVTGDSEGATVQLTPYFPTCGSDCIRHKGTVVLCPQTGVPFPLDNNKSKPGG

[16] = system: WT BALB/cJ mice; test: Intranasal injection of IL-17A, pulmonary neutrophilia; assay type: in vivo; settings: A18 60 μg per mouse intranasally, 4 hours
[17] = system: WT BALB/cJ mice; test: Intranasal injection of IL-17E, pulmonary eosinophilia; assay type: in vivo; settings: A18 60 μg per mouse intranasally, 24 hours
[18] = molecular target: IL-17RA on IL-17RA–293 cells and HeLa cells (Homo sapiens, UniProt Q96F46); test: Binding of biotinylated IL-17A to live cells, flow cytometry; assay type: cell-based; settings: A18 10 μM
[19] = system: IL-17E; assay type: cell-based, mouse; settings: IL-17RB–expressing MEFs, 24 hours
[20] = system: WT C57BL/6 mice; test: HDM-induced severe asthma model; assay type: in vivo; settings: A18 120 μg per mouse i.p. days 13 and 14 plus 60 μg per mouse intranasally 1 hour before challenge
[21] = system: IL-17A/IL-17F; test: IL-17A/IL-17F–stimulated expression of target genes in cultured cells; assay type: cell-based
[22] = molecular target: IL-17RA (WT) (Homo sapiens, UniProt Q96F46); test: Fluorescence quenching assay of A18 binding to labeled IL-17RA
[23] = molecular target: T1, IL-17RA D262A mutant; test: Microscale thermophoresis of IL-17A binding to IL-17RA D262A mutant; settings: read-out: binding affinity (Kd) of IL-17RA D262A for IL-17A, MST
[24] = molecular target: human IL-17RA D262A mutant protein (soluble, secreted, hexahistidine-tagged) (human); test: MST
[25] = molecular target: T4, human IL-17RB-Fc (human, UniProt Q9NRM6 18-289); test: ELISA
T4 sequence (looked up): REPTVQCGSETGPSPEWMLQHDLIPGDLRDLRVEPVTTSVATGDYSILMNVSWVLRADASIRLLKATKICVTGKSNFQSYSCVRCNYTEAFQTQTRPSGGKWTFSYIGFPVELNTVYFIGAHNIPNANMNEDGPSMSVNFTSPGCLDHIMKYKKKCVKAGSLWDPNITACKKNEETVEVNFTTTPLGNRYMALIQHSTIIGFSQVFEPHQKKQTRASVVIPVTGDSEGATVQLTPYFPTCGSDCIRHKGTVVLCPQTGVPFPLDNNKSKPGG

[26] = molecular target: T5, human IL-17RE-Fc (human, UniProt Q8NFR9 155-454); test: ELISA
T5 sequence (looked up): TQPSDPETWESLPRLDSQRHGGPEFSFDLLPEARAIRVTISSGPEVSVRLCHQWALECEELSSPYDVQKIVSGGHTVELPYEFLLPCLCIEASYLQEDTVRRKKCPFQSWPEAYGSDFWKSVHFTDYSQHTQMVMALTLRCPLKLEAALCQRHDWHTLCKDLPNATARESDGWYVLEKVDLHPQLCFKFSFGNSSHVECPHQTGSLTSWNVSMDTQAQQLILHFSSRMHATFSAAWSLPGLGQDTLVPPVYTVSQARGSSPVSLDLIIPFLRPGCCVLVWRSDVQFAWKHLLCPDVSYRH

[27] = TH17 cell–mediated EAE, flow cytometry

IL-17A/IL-17RA binding, sequence (Q96F46 33-322): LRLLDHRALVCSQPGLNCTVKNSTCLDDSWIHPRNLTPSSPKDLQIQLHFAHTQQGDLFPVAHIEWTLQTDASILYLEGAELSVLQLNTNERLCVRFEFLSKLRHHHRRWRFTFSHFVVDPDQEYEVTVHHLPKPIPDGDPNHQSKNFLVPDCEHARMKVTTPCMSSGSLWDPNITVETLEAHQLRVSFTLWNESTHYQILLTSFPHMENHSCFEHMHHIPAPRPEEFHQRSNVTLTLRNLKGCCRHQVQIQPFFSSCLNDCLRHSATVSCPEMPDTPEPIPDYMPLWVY
T1 sequence (Q96F46 33-320 D293A): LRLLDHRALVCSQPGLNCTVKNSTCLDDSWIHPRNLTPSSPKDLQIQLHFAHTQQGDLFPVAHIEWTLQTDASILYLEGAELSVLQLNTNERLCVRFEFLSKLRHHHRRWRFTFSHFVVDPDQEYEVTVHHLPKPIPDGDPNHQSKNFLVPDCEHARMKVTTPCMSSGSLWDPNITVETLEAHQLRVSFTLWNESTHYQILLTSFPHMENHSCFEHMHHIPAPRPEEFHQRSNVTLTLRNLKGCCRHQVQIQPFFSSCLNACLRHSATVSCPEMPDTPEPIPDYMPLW
IL-17RA on IL-17RA–293 cells and HeLa cells, sequence (Q96F46 33-866): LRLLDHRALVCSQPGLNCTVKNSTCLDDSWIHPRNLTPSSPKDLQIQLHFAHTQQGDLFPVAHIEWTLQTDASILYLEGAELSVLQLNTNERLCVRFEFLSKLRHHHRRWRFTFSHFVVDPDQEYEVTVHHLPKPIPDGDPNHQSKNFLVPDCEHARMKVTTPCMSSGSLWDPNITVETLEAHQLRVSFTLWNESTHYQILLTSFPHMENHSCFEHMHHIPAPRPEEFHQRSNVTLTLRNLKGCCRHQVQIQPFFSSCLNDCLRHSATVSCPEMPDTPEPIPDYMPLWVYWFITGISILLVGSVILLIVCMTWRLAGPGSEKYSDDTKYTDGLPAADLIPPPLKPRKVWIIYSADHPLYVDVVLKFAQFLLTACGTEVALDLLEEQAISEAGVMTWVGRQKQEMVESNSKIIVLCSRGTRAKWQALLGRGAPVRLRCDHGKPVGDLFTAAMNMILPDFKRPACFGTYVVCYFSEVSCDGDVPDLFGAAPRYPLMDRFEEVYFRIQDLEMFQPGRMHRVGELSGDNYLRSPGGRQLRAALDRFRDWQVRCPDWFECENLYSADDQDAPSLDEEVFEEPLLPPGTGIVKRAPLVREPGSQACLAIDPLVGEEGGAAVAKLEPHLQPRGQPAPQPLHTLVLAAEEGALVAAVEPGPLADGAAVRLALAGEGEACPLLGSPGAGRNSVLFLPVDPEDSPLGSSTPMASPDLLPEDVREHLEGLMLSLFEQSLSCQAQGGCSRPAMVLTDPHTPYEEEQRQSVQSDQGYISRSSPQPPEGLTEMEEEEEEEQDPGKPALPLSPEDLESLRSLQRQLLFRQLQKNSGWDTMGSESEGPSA
IL-17RA (WT), sequence (Q96F46 33-320 limits assumed): as the sequence (Q96F46 33-320 D293A) above, with A261D counted along it
IL-17RA, sequence (Q96F46 33-320 limits assumed): as the sequence (Q96F46 33-320 D293A) above, with A261D counted along it

Molecule: Oc1cc(O)c2cc(O)c(-c3cc(O)c(O)c(O)c3)[o+]c2c1 [A10, delphinidin]
- IC50 value compared to that of A18, IL-17A/IL-17RA binding ([1]; in words, relative to A18): slightly improved

Molecule: Oc1cc(O)c2cc(O)c(-c3ccc(O)c(O)c3)[o+]c2c1.[Cl-] [A18, 2-(3,4-dihydroxyphenyl)-3,5,7-trihydroxy-1-benzopyrylium chloride]
- IL-17A–stimulated production of CXCL1 (KC), IL-6 and CXCL2 (MIP-2) [2]: substantially inhibited
- Kd [3]: 6.35 µM
- abundances of Myc, Cxcl1 and Steap4 mRNAs in the ears [4]: not substantially increased
- IL-17E–stimulated production of CXCL1 / expression of target genes [5]: limited inhibitory activity; also recorded: little effect
- IL-17F–stimulated expression of target genes [6]: inhibited
- EAE disease severity (peak and remission stages) after cessation of A18 ([7]; A18 withdrawn on day 15, compared with mice never treated with A18): substantially reduced
- numbers of CD4+CD25+Foxp3+ Treg cells in lymphoid organs or CNS ([7]; EAE recovery phase (day 20)): did not affect
- demyelination in the spinal cords ([7]; TH17 cell–mediated EAE): diminished demyelination
- expression of IL-17A target genes ([7]; TH17 cell–mediated EAE): reduced expression
- infiltration into the brains of CD4+ T cells, CD8+ T cells or F4/80+ macrophages [7, 27]: no effect
- recruitment of Ly6G+ neutrophils into the brains [7, 27]: substantially reduced
- binding to IL-17RA by SPR [8]: confirmed the binding
- TPA-induced expression of target genes [9]: substantially reduced
- expression of genes encoding TH2 cell–type cytokines in the lungs [10]: no effect
- disruption of IL-17C/IL-17RE binding [11]: did not efficiently disrupt
- inflammatory gene expression in the lungs [12]: substantially reduced
- IL-17A–mediated recruitment of Act1 to IL-17RA ([13]; 10 μM A18): decreased
- IL-17A–mediated phosphorylation of IκBα, JNK, p38 and ERK1/2 ([13]; pretreated 1 hour with 10 μM A18): decreased
- IC50 [1]: 1.68 µM
- IL-17A–stimulated production of CXCL1 (GROα), IL-6 and IL-8 [14]: substantially inhibited
- disruption of IL-17E/IL-17RB binding [15]: did not efficiently disrupt
- IL-17A–induced pulmonary neutrophilia [16]: substantially inhibited
- expression of IL-17A target genes (Cxcl1, Il6, Ccl11) in lung [16]: substantially inhibited
- IL-17E–induced pulmonary eosinophilia [17]: did not inhibit
- TH2 cell–associated gene expression in lung ([17]; IL-17E): did not inhibit
- binding of IL-17A to ectopically expressed or endogenous IL-17RA on live cells [18]: inhibited
- IL-17E–stimulated production of CXCL1 / expression of target genes [19]: limited inhibitory activity; also recorded: little effect
- HDM-induced AHR [20]: substantially reduced
- HDM-induced inflammatory gene expression in the lungs [20]: substantially reduced
- HDM-induced neutrophilia [20]: substantially reduced
- IL-17A/IL-17F–stimulated expression of target genes [21]: inhibited
- Kd [22]: ~3 µM

Molecule: OC[C@H]1O[C@@H](Oc2cc3c(O)cc(O)cc3[o+]c2-c2ccc(O)c(O)c2)[C@H](O)[C@@H](O)[C@@H]1O [cyanidin-3-O-glucoside]
- IC50 ([1]; read-out: IC50, inhibition of IL-17A/IL-17RA binding, in vitro ligand-receptor binding inhibition assay, purified proteins): 6.88 µM

Molecule: Oc1cc(O)c2ccc(-c3ccc(O)c(O)c3)[o+]c2c1 [luteolinidin]
- IC50 [1]: 6.75 µM

Molecule: Oc1ccc(-c2[o+]c3cc(O)cc(O)c3cc2O)cc1 [pelargonidin]
- IC50 [1]: > 100 µM

Molecule: IL-17A: purified recombinant human interleukin-17A, cytokine ligand of IL-17RA
- Kd [23]: 1.57 µM

Molecule: purified recombinant human IL-17A (from UniProt Q16552 24-155) (ligand)
- Kd [24]: 1.57 µM

B1: purified recombinant human IL-17E (IL-25) (ligand, UniProt Q9H293 33-177, looked up)
chain: YSHWPSCCPSKGQDTSEELLRWSTVPVPPLEPARPNRHPESCRASEDGPLNSRAISPWRYELDRDLNRLPQDLYHARCLCPHCVSLQTGSHMDPRGNSELLYHNQTVFYRRPCHGEKGTHKGYCLERRLYRVSLACVCVRPRVMG
- binding result [25]: binds

B2: purified recombinant human IL-17C (ligand, UniProt Q9P0M4 19-197, looked up)
chain: HHDPSLRGHPHSHGTPHCYSAEELPLGQAPPHLLARGAKWGQALPVALVSSLEAASHRGRHERPSATTQCPVLRPEEVLEADTHQRSISPWRYRVDTDEDRYPQKLAFAECLCRGCIDARTGRETAALNSVRLLQSLLVLRRRPCSRDGSGLPTPGAFAFHTEFIHVPVGCTCVLPRSV
- binding result [26]: binds
